Measurements: ChEMBL document CHEMBL5712093, “The histone methyltransferase SMYD2 is a novel therapeutic target for the induction of apoptosis in ovarian clear cell carcinoma cells” (Oncol Lett, 2020)

Key:
Type in all cases: functional, cell-based
[1] = Anti-proliferative activity against human OVTOKO cells assessed as cell viability incubated for 24 hrs by CCK-8 assay
TOV21G = assay: Anti-proliferative activity against human TOV-21G cells assessed as cell viability incubated for 24 hrs by CCK-8 assay
[2] = Anti-proliferative activity against human OVMANA cells assessed as cell viability incubated for 24 hrs by CCK-8 assay

Cc1cn(CCN2CCN(c3ccccc3-c3cc(C#N)cc(C(=O)NCCCN4CCCC4)c3)CC2)c2ccccc12
IC50 [1]: 0.95 µM
IC50 (TOV21G): 1.2 µM
IC50 [2]: 1.17 µM
